# In patent publication US10293004B2, “Butyrate-producing bacterium and use thereof” (KABUSHIKI KAISHA YAKULT HONSHA, priority 2014, dated 2019):
# What was measured:
# [1] = Biochemical properties: saccharide fermentability (API-ZYM, Rapid ID32A API, API KENKI 20A); parameters: key: +: positive reaction; −: negative reaction; +^w: weak reaction
# Excerpt: (§1) Commercially available API-ZYM, Rapid ID32A API, and API KENKI 20A (SYSMEX bioMerieux Co., Ltd.) were used in the testing of biochemical properties of various bacterial strains. The testing method followed the product manuals.
# mouse fresh feces = test: Relationship between increase in cell count of YIT 12355 and butyrate concentration in mouse feces culture system
# Procedure: 0.8 g of mouse fresh feces obtained 1 week after the start of the single dose test of Example 6 was collected into a sample tube and the tube was transferred into a glove box with the low-temperature and anaerobic state maintained. The feces were diluted with PBS anaerobically substituted in advance (final dilution: 12.5-fold), and a maltitol solution (final concentration: 0.5%) and/or a cultured bacterial solution of YIT 12355 (1% inoculated) was added thereto, followed by anaerobic culture at 37° C. for 24 hours. After the culture, the butyrate concentration was measured by ion-exclusion HPLC using an electric conductivity detector.
# [2] = Amount of butyrate produced by culture in PYA medium supplemented with acetate and lactate; settings: PYA medium (33 mM sodium acetate) with 40 mM sodium lactate, 37° C. 24 hours, minus PYA without lactate
# Procedure: Each bacterial solution cultured in a PYGA liquid medium under the same conditions as those described in the preceding paragraph 1) was inoculated at 1% to a PYA medium containing 33 mM sodium acetate and further supplemented with 40 mM sodium lactate, followed by anaerobic culture at 37° C. for 24 hours. After the completion of the culture, the organic acid concentration in the culture solution was analyzed by ion-exclusion HPLC. The analysis conditions were the same as those described in the preceding paragraph 1). The amount of butyrate produced was calculated according to (Expression 2). Amount of butyrate produced=(Amount of butyrate produced by culture for 24 hours in a PYA medium supplemented with 40 mM sodium lactate)−(Amount of butyrate produced by culture for 24 hours in a PYA medium without 40 mM sodium lactate) (Expression 2)
# [3] = Biochemical properties: enzymatic activity (API-ZYM, Rapid ID32A API, API KENKI 20A); parameters: key: +: positive reaction; −: negative reaction; +^w: weak reaction
# Excerpt: as §1
# [4] = Production of butyrate by each bacterial strain from L-sorbose and D-xylitol (ion-exclusion HPLC); settings: 24 hours, minus PYA blank
# Procedure: A frozen stock solution of each bacterial strain (a 10% (w/v) skim milk-2% sodium glutamate solution in which bacterial cells were suspended) (cell count: 2.0 to 5.5×10^10 cells/mL) was thawed, and the solution was inoculated at 1% to 4 mL of a PY liquid medium supplemented with 33 mM sodium acetate and 0.5 (w/v) % glucose (PYGA medium), followed by anaerobic culture at 37° C. for 24 hours. After the culture, the culture solution was inoculated at 1% to a fresh PYGA medium, followed by anaerobic culture at 37° C. for 24 hours. After the culture, the turbidity (OD660) of the culture solution was measured. Then, the culture solution was inoculated at 1% to a PY medium containing 0.5 (w/v) % L-sorbose or D-xylitol and 33 mM sodium acetate (the medium containing L-sorbose: PYSA, and the medium containing D-xylitol: PYXA), followed by anaerobic culture at 37° C. for 24 hours. Then, the turbidity (OD660) was measured.
# After the completion of the culture, the organic acid concentration in the culture solution was quantified by ion-exclusion HPLC. In this operation, a culture solution in a PY medium supplemented with sodium acetate but without L-sorbose or D-xylitol (PYA medium) was used as a blank.
# (HPLC Analysis Conditions) • Eluent: 15 mM perchloric acid-7% acetonitrile • pH adjuster: 15 mM perchloric acid-60 mM • tris(hydroxymethyl)aminomethane-7% acetonitrile • Separation column: Organic acid analysis column RSpak KC- • 811×2 (manufactured by Showa Denko K.K.) • Column temperature: 42° C. • Injected sample volume: 10 μL • Flow rate: 1.0 mL/min • Analysis time: 35 min • Detector: Waters 432 electric conductivity detector • Cell temperature: 45° C.
# The amount of butyrate produced was calculated according to (Expression 1). Amount of butyrate produced=(Amount of butyrate produced by culture for 24 hours in a PYSA or PYXA medium)−(Amount of butyrate produced by culture for 24 hours in a PYA medium) (Expression 1)
substance,measurement,setting,value
A. hadrus (Eubacterium hadrum) YIT 12355 (NITE BP-01832),Aesculin,[1],+
same,D-Cellobiose,[1],+^w
same,D-Mannitol,[1],+
same,D-Raffinose,[1],−
same,D-Xylose,[1],+
same,Glycerol,[1],+^w
same,L-Arabinose,[1],+
same,L-Rhamnose,[1],+
same,L-Sorbitol,[1],+
same,Mallose,[1],+
same,Salicin,[1],+
same,cell count of A. hadrus,mouse fresh feces,increased
same,butyrate concentration,"mouse fresh feces; maltitol 0.5% and/or YIT 12355 1% inoculated, 37° C. 24 hours, FIG. 8",increased
same,Amount of butyrate produced,[2],19.9 mmol/L
same,Acid phosphatase,[3],+
same,Alkaline phosphatase,[3],+
same,Esterase (C4),[3],+
same,Naphthol-AS-B1-phosphohydrolase,[3],+
same,α-Glucosidase,[3],+^w
same,β-Galactosidase,[3],+
same,β-Galactosidase-6-phosphate,[3],−
same,Amount of butyrate produced,"[4]; D-Xylitol 0.5 (w/v) %, PYXA medium",31.9 mmol/L
same,Amount of butyrate produced,"[4]; L-Sorbose 0.5 (w/v) %, PYSA medium",15.4 mmol/L
